From paper PMC8743659, “C1632 suppresses the migration and proliferation of non‐small‐cell lung cancer cells involving LIN28 and FGFR1 pathway” (Journal of Cellular and Molecular Medicine, 2021)

Columns and labels:
CYP2C11 = target: T1, CYP2C11 (Rattus norvegicus, UniProt P08683); assay: Microsomal incubation (cocktail) assay, rat liver microsomes; assay type: in vitro ADME; details: 100 μM C1632, probe 250 μM tolbutamide, 30 min, 37°C
T1 construct: 3.4 mg/ml pooled rat liver microsomes; from tissue; host or cells: pooled rat liver microsomes
T1 sequence (P08683 1-500): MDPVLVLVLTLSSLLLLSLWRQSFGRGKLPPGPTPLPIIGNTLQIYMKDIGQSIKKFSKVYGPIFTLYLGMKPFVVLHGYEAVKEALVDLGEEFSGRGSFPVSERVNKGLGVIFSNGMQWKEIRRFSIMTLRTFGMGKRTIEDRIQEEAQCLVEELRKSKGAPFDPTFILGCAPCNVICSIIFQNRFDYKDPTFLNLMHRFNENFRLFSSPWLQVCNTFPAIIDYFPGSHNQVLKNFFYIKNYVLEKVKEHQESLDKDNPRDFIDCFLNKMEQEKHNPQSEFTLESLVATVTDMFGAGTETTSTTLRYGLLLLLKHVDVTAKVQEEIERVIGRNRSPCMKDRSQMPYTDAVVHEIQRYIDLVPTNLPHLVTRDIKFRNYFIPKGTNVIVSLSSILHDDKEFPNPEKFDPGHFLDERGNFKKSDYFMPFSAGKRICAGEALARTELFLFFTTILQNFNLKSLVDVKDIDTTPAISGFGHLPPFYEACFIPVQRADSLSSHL
Procedure: (§1) The microsomal incubation assay[41] was performed at 37°C in a 200 μl incubation system, which consisted of 3.4 mg/ml pooled rat liver microsomes, 100 μM C1632, and probe substrates (5 μM CYP3A2‐midazolam; 10 μM CYP2D1‐dextromethorphan; 250 μM CYP2C11‐tolbutamide; 10 μM CYP2B1‐bupropion; and 0.1 M Tris–HCl [pH 7.4]). After 5 min of incubation, 1 mM NADPH was added, and the assay was terminated after 30 min by cooling at −80°C. Next, 0.2 ml acetonitrile and 20 μl IS (100 ng/ml) were added to the reactant. Finally, the solution was thoroughly vortexed and centrifuged at 12,000 rpm for 10 min. The supernatant was analysed by UHPLC‐MS/MS.[42]

CYP3A2 = target: T2, CYP3A2 (Rattus norvegicus, UniProt P05183); assay: as above; assay type: in vitro ADME; details: 100 μM C1632, probe 5 μM midazolam, 30 min, 37°C
T2 construct: 3.4 mg/ml pooled rat liver microsomes; from tissue; host or cells: pooled rat liver microsomes
T2 sequence (P05183 1-504): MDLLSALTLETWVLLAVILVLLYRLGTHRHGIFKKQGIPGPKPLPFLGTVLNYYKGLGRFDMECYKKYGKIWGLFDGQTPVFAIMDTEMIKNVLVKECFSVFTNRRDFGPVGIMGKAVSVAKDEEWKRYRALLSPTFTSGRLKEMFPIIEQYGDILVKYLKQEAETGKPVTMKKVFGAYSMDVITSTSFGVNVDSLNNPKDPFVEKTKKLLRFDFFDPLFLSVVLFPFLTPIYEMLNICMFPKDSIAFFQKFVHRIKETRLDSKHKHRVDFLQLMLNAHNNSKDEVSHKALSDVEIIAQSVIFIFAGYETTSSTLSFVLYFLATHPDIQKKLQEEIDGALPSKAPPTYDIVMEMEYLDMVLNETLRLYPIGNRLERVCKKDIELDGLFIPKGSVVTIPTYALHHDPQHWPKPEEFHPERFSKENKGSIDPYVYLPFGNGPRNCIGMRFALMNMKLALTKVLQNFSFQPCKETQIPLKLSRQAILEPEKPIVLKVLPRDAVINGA
Procedure: as §1

LIN28 = assay: qPCR of LIN28 mRNA in NSCLC cells; assay type: cell-based, human; details: A549 and A549R cells, 15, 30 and 60 mg/L, 5 days; especially in A549R
Procedure: Total RNA was extracted using RNAiso Plus (Takara) according to the manufacturer's instructions. cDNA was synthesized using PrimeScript II first‐strand cDNA Synthesis Kit (Takara), followed by amplification with RealStar Power SYBR Mixture (GenStar). miRNAs were quantified using the stem‐loop method, and U6 snRNA was adopted as internal control. Specific primer sequences were designed as previously reported.[40] qPCR was carried out with a LightCycler 480 Real‐Time PCR system (Roche). Data were analysed using the comparative Ct (2−ΔΔCt) method.[41] All experiments were performed in three independent experiments. qPCR primers for mRNA detection were as follows: GAPDH‐forward 5′‐[…]‐3′; GAPDH‐reverse 5′‐[…]‐3′; LIN28A‐forward 5′‐[…]‐3′; LIN28A‐reverse 5′‐GCGGTCATGGACA GGAAGCC‐3′; LIN28B‐forward 5′‐[…]‐3′; LIN28B‐reverse 5′‐[…]‐3′.

FGFR1 = assay: Western blot of FGFR1 signalling in NSCLC cells; assay type: cell-based, human; details: A549 and A549R cells, C1632 5 days, dose-dependent
Procedure: The total cell protein was extracted and denaturized at 95°C for 10 min. Samples were separated in SDS‐PAGE gel, then transferred to a PVDF membrane. […] Blots were probed with relevant primary antibodies against FGFR1 (CST), p‐FGFR1 (CST), MAPK (CST), p‐MAPK (CST), FAK (CST), p‐FAK (CST), MMP‐9 (CST), LIN28B (CST), GAPDH (CST), and β‐actin (proteintech) overnight at 4°C, respectively. Then the lanes were detected with HRP‐conjugated secondary antibodies and visualized using WESTAR SUPERNOVA kit ([…]).

A549 cells = assay: Edu staining assay; assay type: cell-based, human; details: A549, 15, 30 or 60 mg/L, 5 days, dose-dependent
Procedure: (§2) Edu staining assay was carried out according to Edu staining Kit (Beyotime). First, A549 or A549R cells were seeded in 6‐well plates and cultured in RPMI medium 1640 containing 10% FBS, then treated with C1632 (15, 30, or 60 mg/L) for 5 days. Subsequently, cells were incubated with Edu for 3 h, fixed with 4% paraformaldehyde for 15 min, and permeated with 0.3% Triton X‐100 for another 15 min. Then cells were incubated with the Click Reaction Mixture provided by Edu staining Kit for 30 min at room temperature in dark and then stained with DAPI. Finally, the stained cells were scanned and imaged under Nikon Ti microscope.

A549R cells = assay: Edu staining assay; assay type: cell-based, human; details: A549R, 15, 30 or 60 mg/L, 5 days, dose-dependent
Procedure: as §2

A549R xenograft tumours = assay: NSCLC A549R xenograft model; assay type: in vivo, mice
Procedure: A total of 1.0 × 10^6 A549R cells were inoculated subcutaneously into the dorsal flank of the nude mice in 100 µl phosphate‐buffered saline (PBS). Mice were randomly divided into control and C1632 treatment groups (n = 4 per group). Mice were i.p. injected every other day for 18 days (A549R) at a dose of 30 mg/kg in 100 µl PBS per mouse. The tumours were resected, and their size was estimated from the measurements of weight or the longest diameter across the tumour and the corresponding perpendicular diameter.

In the case of `CC(=O)N(C)c1cccc(-c2ccc3nnc(C)n3n2)c1` [C1632], the “effect on CYP2C11 activity” value (CYP2C11) is reported as “significantly inhibit”, the “effect on CYP3A2 activity” value (CYP3A2) is reported as “significantly inhibit” and the “LIN28 mRNA levels” value (LIN28) is reported as “decreased”. For the same molecule, the “expression of FGFR1 and FGFR1 phosphorylation” value (FGFR1) was “inhibited”, the “phosphorylation of the downstream kinase MAPK” value (FGFR1) was “inhibited” and the DNA replication (A549 cells) was “significant inhibition”. The DNA replication (A549R cells) was “significant inhibition”, the “body weight of mice” value (A549R xenograft tumours; 30 mg/kg every 2 days for 18 days) was “did not affect” and the “growth of xenograft tumour cells (tumour volume over treatment period)” value (A549R xenograft tumours; 30 mg/kg every 2 days for 18 days, time-dependent) was “suppressed”. The “tumour size (weight), mean ± SD” value (A549R xenograft tumours; 30 mg/kg every 2 days, after 18 days, n = 4, untreated 2.35 ± 0.43 g, p < 0.05) was 1.36 ± 0.27 g.
